{"source": "paper PMC12775124", "about": "“CUL4A-DDB1-DCAF10 is an N-recognin for N-terminally acetylated Src kinases” (Nature Communications, 2026)", "key": {"[1]": {"system": "DLD-1 Lyn KO Flp-In T-REx cells", "test": "Direct ubiquitin blot of Lyn-GFP immunoprecipitates", "assay_type": "cell-based, human", "conditions": "anti-GFP IP, anti-Ub blot, n = 3", "description": "Fig. 6 N-terminal glycine mutation abolishes DCAF10-dependent stability and ubiquitination. a DLD-1 Flp-In T-REx cells and Lyn KO cells expressing Lyn^WT-GFP, Lyn^G2A-GFP, or Lyn^G2P-GFP were induced for 24 h with 100 ng/mL doxycycline. Cells were treated with NMT1/2 siRNA, DCAF10 siRNA, or both (or left untreated) for 72 h. Representative WBs are shown. Filled circles represent siRNA treatment, empty circles untreated. b WB quantifications of Lyn levels normalized to vinculin. Purple: untreated with NMT1/2 siRNA; blue: treated with NMT1/2 siRNA. Mean ± s.d. with individual data points are shown (n = 3 independent biological replicates). c Schematic of ubiquitination experiments. Created in BioRender. […] Lysates have been treated with NMT1/2 RNAi for 72 h. i Quantification of in vitro ubiquitination assays. Mean ± s.d. with individual data points are shown (n = 3 independent ubiquitination assays). Volcano plots of Lyn-GFP^WT binding partners: j NMT1/2 siRNA ± doxycycline (Dox); k Control ± doxycycline; l NMT1/2 siRNA vs. control both with doxycycline. The −log10 adjusted p-value (two-sided Student’s t test with permutation-based multiple-testing correction; y-axis) is plotted against the log2 fold change (x-axis). […]\nWe next assessed the role of the Lyn Nt-residue for ubiquitination by performing two complementary experimental set-ups (Fig. 6c). […]"}, "DCAF10": {"system": "DCAF10", "test": "Anti-GFP immunoprecipitation of Lyn-GFP with MS, DCAF10", "assay_type": "binding, human", "conditions": "anti-GFP IP, NMT1/2 siRNA and control", "quoted_text": "494 induction using GFP-Trap magnetic agarose beads. Briefly, 10 µL of bead slurry per\n495 reaction was equilibrated three times with ice-cold lysis buffer (75 mM HEPES pH 7.5,\n497 supplemented with 1mM DTT, PhosSTOP, and Protease Inhibitor Cocktail). Then, 500\n498 µL of each lysate sample (control, dox induction, and NMT1/2 knockdown with or\n499 without dox induction) containing approximately 300 µg total protein, were added to\n500 tubes containing the equilibrated beads. Samples were rotated end-over-end for 1.5–2 h\nAfter incubation, the beads were washed twice with 500 µL of cold lysis buffer\n502 and twice with 500 µL of cold lysis buffer lacking NP-40, glycerol, DTT, phosSTOP, and\n503 Protease Inhibitor Cocktail. Finally, the immunoprecipitates were resuspended in 50 µL\n504 of 8 M urea, incubated at 25°C for 30 min, and stored at -20°C prior to on-bead digestion\nEach experimental condition was performed in\n526 Mass spectrometry measurements and raw file processing\n527 Samples (peptide pull-downs, IPs and high-pH fractionations) were separated on an\n528 EASY-nLC 1200 HPLC system (Thermo Fisher Scientific, Waltham, MA, USA) using\n529 in-house-packed 50-cm reversed-phase columns (75 cm diameter, 1.9 mm C18 ReproSil\n530 particles, Dr. Maisch GmbH) (60°C at 300 nL/min flow rate with an 83 min gradient from […]\n536 sec cycle time) (data points per peak = 6). Cycle times were calculated based on the […]"}, "pY397 Lyn": {"system": "pY397 Lyn", "test": "Phosphorylation of Lyn-GFP variants at pY397, Western blot (reviewers only)", "assay_type": "cell-based, human", "conditions": "preliminary experiment, unstimulated cells, three independent blots", "text": "distinct in term of phospho-tyrosine activity?\nWe agree that understanding the functional consequences of N-terminal acetylation versus myristoylation—particularly regarding kinase activity and localization—is among the most relevant questions and a key next step in this project. As an initial indication, we performed a preliminary experiment using full-length Lyn constructs (LynWT-GFP, LynG2A-GFP, and LynG2P-GFP) with or without NMT1/2 RNAi and probed the activating phospho-tyrosine site of Lyn (pY397). We observed marked […]\nupon NMT1/2 knockdown specifically at the activating pY397 site, while global pY levels appeared to be largely unchanged in these unstimulated cells, […] (Figure 2 provided to reviewers only). […]\nhave not included them in the manuscript but provide them for the reviewers’ information only, as we are working on consequences for kinase activity and biological role. We plan to pursue a systematic analysis under stimulated conditions, quantifying pY patterns and localization changes to define how the N-terminal state affects SFK signaling output. […]\nFig. 2 for reviewers only. a) LynWT-GFP, LynG2A-GFP and LynG2P-GFP expressing cells were treated with NMT1/2 RNAi or left untreated and then blotted against anti-pY397 Lyn, pan-anti-pY and controls. b) Quantification of three independent blots. […]"}}, "data": [{"substance": "Lyn^WT-GFP: doxycycline-inducible C-terminally GFP-fused Lyn in DLD-1 Lyn KO cells", "values": [{"measurement": "Ubiquitination in cells (in words)", "setting": "[1]", "value": "ubiquitinated under both conditions, with a stronger signal in controls"}, {"measurement": "Interaction with DCAF10 (in words)", "setting": "DCAF10", "value": "significantly interacted with DCAF10 under both NMT1/2 siRNA and control conditions, with significant enrichment upon NMT1/2 KD"}, {"measurement": "Decrease of pY397 phosphorylation upon NMT1/2 knockdown", "setting": "pY397 Lyn", "value": "approximately 15%"}]}]}
